From US9409891B2, “Solid forms of an antiviral compound” (Gilead Sciences, Inc., priority 2012, dated 2016)
≈ marks a conversion by molar mass, not a printed value.

How the values were obtained:
[1] = Follow-up stable form screening (Form II stirred in solvents at about 22° C.); assay type: physicochemical; conditions: about 22° C., Form II start
Procedure: In the follow-up stable form screening experiments, the starting materials were Form II. The solids were stirring in the solvents list below at about 22° C. in 2 ml vials.

[2] = Stable form competition study in ACN; assay type: physicochemical; conditions: ACN mother liquor
Procedure: To further verify the stability of Form II, competitive crystallization was conducted by adding Forms I through V into a high concentration solution of amorphous Compound I in ACN. […] The mother liquor obtained, which was saturated in terms of Form II, was used in another test in which other forms (Forms I, III, IV and V) were added.

[3] = dried at 70° C.
[4] = Desolvation screening (vacuum oven); assay type: physicochemical; conditions: heated to about 110~120° C. in a vacuum oven
Procedure: Another method of generating anhydrous forms is desolvation. In this study, the solvates and hydrates of Compound I were heated to about 110˜120° C. in a vacuum oven to desolvate.

[5] = First stable form screening (amorphous Compound I in 19 solvents/mixtures at ambient conditions); assay type: physicochemical; conditions: for 2-Week solids / 24 h solids / solubility: amorphous start, ambient; for solubility: thermodynamic from solid
Procedure: The first stable form screening was conducted using 19 solvents/mixtures at ambient conditions. The starting material was amorphous. Anti-solvents, either water or heptane, were used to precipitate the solids.
Form I is a hydrate form obtained from ACN/water 50:50 mixture. Form II is an anhydrous form obtained from ACN. […] Solids in water and heptane were amorphous. Other samples remained as solutions.
It appears to be a solvated form. […] Solids in water and heptane remained amorphous. Other samples remained as solution.

[6] = 2 Me-THF, init. conc. 77.4 mg/mL
[7] = Acetone, init. conc. 79.6 mg/mL
[8] = Heptane, init. conc. 12.7 mg/mL
[9] = Toluene, init. conc. 16.2 mg/mL

CC1=CC[C@H](C(=O)N(c2cc(C#CC(C)(C)C)sc2C(=O)O)[C@H]2CC[C@](O)(CO[C@H]3CCOC3)CC2)CC1.CCC(C)=O (relative stereo) [Form X, 5-(3,3-dimethylbutyn-1-yl)-3-[(cis-4-hydroxy-4-{[(3S)-tetrahydrofuran-3-yloxy]methyl}cyclohexyl){[(1R)-4-methylcyclohex-3-en-1-yl]carbonyl}amino]thiophene-2-carboxylic acid methyl ethyl ketone]
solubility ([1]; MEK, value for Form X): 127 mg/mL

CC1=CC[C@H](C(=O)N(c2cc(C#CC(C)(C)C)sc2C(=O)O)[C@H]2CC[C@](O)(CO[C@H]3CCOC3)CC2)CC1.O (relative stereo) [Form I, 5-(3,3-dimethylbutyn-1-yl)-3-[(cis-4-hydroxy-4-{[(3S)-tetrahydrofuran-3-yloxy]methyl}cyclohexyl){[(1R)-4-methylcyclohex-3-en-1-yl]carbonyl}amino]thiophene-2-carboxylic acid hydrate]
Behaviour of solids added to mother liquor saturated in Form II [2]: dissolved quickly
Solid state after drying (XRPD) [3]: partially became amorphous
Final Form after desolvation [4]: Amorphous
solubility ([1]; Water, value for Form I): 0.25 mg/mL

CC1=CC[C@H](C(=O)N(c2cc(C#CC(C)(C)C)sc2C(=O)O)C2CCC(O)(CO[C@H]3CCOC3)CC2)CC1.CCO (relative stereo) [Form IX, 5-(3,3-dimethylbutyn-1-yl)-3-[(cis-4-hydroxy-4-{[(3S)-tetrahydrofuran-3-yloxy]methyl}cyclohexyl){[(1R)-4-methylcyclohex-3-en-1-yl]carbonyl}amino]thiophene-2-carboxylic acid ethanol solvate]
solubility ([1]; EtOH, value for Form IX): 283 mg/mL

5-(3,3-dimethylbutyn-1-yl)-3-[(cis-4-hydroxy-4-{[(3S)-tetrahydrofuran-3-yloxy]methyl}cyclohexyl){[(1R)-4-methylcyclohex-3-en-1-yl]carbonyl}amino]thiophene-2-carboxylic acid hydrate and/or solvate [Form III]
Form conversion in slurry ([5]; EtOH/water slurry, after 2 weeks of stirring): converted to Form IV
Form conversion upon drying ([5]; solids from EtOH/water, dried): converted to Form IV

5-(3,3-dimethylbutyn-1-yl)-3-[(cis-4-hydroxy-4-{[(3S)-tetrahydrofuran-3-yloxy]methyl}cyclohexyl){[(1R)-4-methylcyclohex-3-en-1-yl]carbonyl}amino]thiophene-2-carboxylic acid solvate [Form V]
Final Form after desolvation [4]: Amorphous

CC1=CC[C@H](C(=O)N(c2cc(C#CC(C)(C)C)sc2C(=O)O)C2CCC(O)(CO[C@H]3CCOC3)CC2)CC1.O (relative stereo) [Form VIII, 5-(3,3-dimethylbutyn-1-yl)-3-[(cis-4-hydroxy-4-{[(3S)-tetrahydrofuran-3-yloxy]methyl}cyclohexyl){[(1R)-4-methylcyclohex-3-en-1-yl]carbonyl}amino]thiophene-2-carboxylic acid monohydrate]
Final Form after desolvation [4]: VIII

CC(C)O.CC1=CC[C@H](C(=O)N(c2cc(C#CC(C)(C)C)sc2C(=O)O)C2CCC(O)(CO[C@H]3CCOC3)CC2)CC1 (relative stereo) [Form VII, 5-(3,3-dimethylbutyn-1-yl)-3-[(cis-4-hydroxy-4-{[(3S)-tetrahydrofuran-3-yloxy]methyl}cyclohexyl){[(1R)-4-methylcyclohex-3-en-1-yl]carbonyl}amino]thiophene-2-carboxylic acid isopropyl alcohol solvate]
Final Form after desolvation [4]: Amorphous
solubility ([1]; IPA, value for Form VII): 266 mg/mL

CC1=CC[C@H](C(=O)N(c2cc(C#CC(C)(C)C)sc2C(=O)O)[C@H]2CC[C@](O)(CO[C@H]3CCOC3)CC2)CC1 [Compound I, 5-(3,3-dimethylbutyn-1-yl)-3-[(cis-4-hydroxy-4-{[(3S)-tetrahydrofuran-3-yloxy]methyl}cyclohexyl){[(1R)-4-methylcyclohex-3-en-1-yl]carbonyl}amino]thiophene-2-carboxylic acid]
2-Week solids [5, 6]: solution
24 h solids [5, 6]: solution
2-Week solids [5, 7]: solution
24 h solids [5, 7]: solution
2-Week solids ([5]; EtOAc, init. conc. 49.4 mg/mL): solution
24 h solids ([5]; EtOAc, init. conc. 49.4 mg/mL): solution
2-Week solids ([5]; EtOH, init. conc. 76 mg/mL): solution
24 h solids ([5]; EtOH, init. conc. 76 mg/mL): solution
2-Week solids [5, 8]: amorphous
24 h solids [5, 8]: amorphous
24 h solids ([5]; IPA/water, init. conc. 47.7 mg/mL): solution
2-Week solids ([5]; IPA, init. conc. 95.4 mg/mL): solution
24 h solids ([5]; IPA, init. conc. 95.4 mg/mL): solution
2-Week solids ([5]; IPAc, init. conc. 39.6 mg/mL): solution
24 h solids ([5]; IPAc, init. conc. 39.6 mg/mL): solution
2-Week solids ([5]; MEK, init. conc. 65.6 mg/mL): solution
24 h solids ([5]; MEK, init. conc. 65.6 mg/mL): solution
2-Week solids ([5]; MIBK, init. conc. 60.2 mg/mL): solution
24 h solids ([5]; MIBK, init. conc. 60.2 mg/mL): solution
24 h solids ([5]; MTBE, init. conc. >45 mg/mL): solution
2-Week solids ([5]; MeCl2, init. conc. 36 mg/mL): solution
24 h solids ([5]; MeCl2, init. conc. 36 mg/mL): solution
2-Week solids ([5]; MeOH, init. conc. 87.4 mg/mL): solution
24 h solids ([5]; MeOH, init. conc. 87.4 mg/mL): solution
2-Week solids ([5]; THF, init. conc. 53.4 mg/mL): solution
24 h solids ([5]; THF, init. conc. 53.4 mg/mL): solution
2-Week solids [5, 9]: solution
24 h solids [5, 9]: solution
2-Week solids ([5]; Water, init. conc. 11 mg/mL): amorphous
24 h solids ([5]; Water, init. conc. 11 mg/mL): amorphous
solubility ([5]; aqueous with cosolvent or surfactant or cyclodextrin, ACN/water (50:50), solids I): 0.23 mg/mL (≈ 0.423 mM)
solubility ([5]; aqueous with cosolvent or surfactant or cyclodextrin, EtOH/water, solids III then IV): 14.5 mg/mL (≈ 26.7 mM)
solubility ([5]; aqueous with cosolvent or surfactant or cyclodextrin, IPA/water, 2-week solids V): 1.78 mg/mL (≈ 3.27 mM)
solubility ([5]; organic solvent or mixture, 2 Me-THF, remained solution): > 77.4 mg/mL
solubility ([5]; organic solvent or mixture, ACN, solids II): 13 mg/mL (≈ 23.9 mM)
solubility ([5]; organic solvent or mixture, Acetone, remained solution): > 79.6 mg/mL
solubility ([5]; organic solvent or mixture, EtOAc, remained solution): > 49.4 mg/mL
solubility ([5]; organic solvent or mixture, EtOH, remained solution): > 76 mg/mL
solubility ([5]; organic solvent or mixture, IPA, remained solution): > 95.4 mg/mL
solubility ([5]; organic solvent or mixture, IPAc, remained solution): > 39.6 mg/mL
solubility ([5]; organic solvent or mixture, MEK, remained solution): > 65.6 mg/mL
solubility ([5]; organic solvent or mixture, MIBK, remained solution): > 60.2 mg/mL
solubility ([5]; organic solvent or mixture, MTBE, 2-week solids V): 316 mg/mL (≈ 581 mM)
solubility ([5]; organic solvent or mixture, MeCl2, remained solution): > 36 mg/mL
solubility ([5]; organic solvent or mixture, MeOH, remained solution): > 87.4 mg/mL
solubility ([5]; organic solvent or mixture, THF, remained solution): > 53.4 mg/mL
solubility ([5]; organic solvent or mixture, Toluene, remained solution): > 16.2 mg/mL
